{
  "source": "patent US11672786B2",
  "about": "“Methods of treating diseases associated with repeat instability” (The Hospital for Sick Children, priority 2016, dated 2023)",
  "key": {"HD fibroblasts (CAG)180": {"system": "HD fibroblasts (CAG)180", "experiment": "small-pool PCR across HD repeat tract, HD primary fibroblasts GM09197", "type": "cell-based, human", "settings": "50 uM NA, 40 days", "protocol": "(§1) The construction of the HT1080-(CAG)850 cell model was described previously (Sathasivam et al., 1997, Hum. Genet., 99:692-5). Briefly, HT1080 (ATCC) human fibrosarcoma cells were co-transfected with a plasmid (LC15-R) containing 800-850 (CTG)●(CAG) repeats (Nakatani et al., 2005, Nat. Chem. Biol., 1:39-43) and a plasmid encoding PhiC31 integrase. Transfection was performed with a Nucleofector (Lonza, Basel, Switzerland), and stably transfected clones were selected with puromycin. […] The HT1080-non-transcribing (CAG)850 cell model was established by transfecting a plasmid modified from pLC16 by inserting an additional SV40 polyadenylation signal downstream of the repeats (in addition to the original polyadenylation signals located upstream of the repeats), so that CAG/CTG repeats are floxed by transcription-terminator elements. The AttB-PhiC31 system has been widely used for single copy integration. […] The HT1080 model cells and an HD primary fibroblast cell line, GM09197 (Coriell Biorepository) with a large expanded allele of 180 CAG repeats and a non-expanded allele of 23 repeats (Sathasivam et al., 1997, Hum. Genet., 99:[…]), the HD primary fibroblast cell line, GM02191 (Coreill Biorepository) with an expanded allele of 43 CAG repeats and a non-expanded allele of 19 repeats, were cultured at 37° C. with 5% CO2 in Dulbecco's modified Eagle's medium supplemented with 10% fetal bovine serum and 1% penicillin/streptomycin. Cells were treated with or without continuous exposure to 50-μM NA for 30 days (HT1080 cells) or for 40 days (fibroblast cells). For experiments on non-proliferating cells, HT1080 cells were grown to confluence and then treated for the same period. WST-1 assay was performed according to the manufacturer's instructions (Roche, Basel, Switzerland). All cell lines were tested to be free of Mycoplasma. Three biological replicates were performed for each experiment.\n(§2) Genomic DNA was extracted from HT1080-(CAG)850 clones and HD primary fibroblasts using the Gentra Puregene Cell Kit (Qiagen, Valencia, Calif.). The expanded (CTG)●(CAG) repeats were sized by small-pool PCR (sp-PCR) followed by Southern blot as described previously (Sathasivam et al., 1997, Hum. Genet., 99:692-5). For HT1080 models, small-pool PCR (spPCR) was performed with the input of 1.4-1.7 genome equivalents. The repeat size difference in the models is, at most, 3000 base-pairs, therefore, being strictly conservative, a bias toward amplifying the shorter allele can be possible, even under optimized PCR conditions described herein. For HD primary fibroblasts, sp-PCR & Southern blots were performed as described previously with slight modifications (Tome et al., 2013, PLoS Genet., 9:e1003280). Briefly, the PCR primers listed in Table 1 were used, and blots were hybridized with a DIG-labeled (CAG)7 locked nucleic acid probe (Nakamori et al. 2009, Neuromuscul. Disord., 19:759-62). At least 50 alleles were analyzed for each of the three experiments (more than 150 alleles for a total study). Repeat analyses are summarized in Table 2, compiled from complete small-pool-PCR datasets for each repetition of each experiment. For the histograms in FIGS. 4D, 4E, 10, 11, 5B, 5D, 5E, 14 and 15B, the Y-axis, “% of repeat population” was calculated by determining the proportion of >50 individual small-pool PCR reactions across the CAG repeat tract, that harbored a certain size of repeat product with a certain length. Cell clones were grown 30 or 40 days with or without NA (see, for example, Sathasivam et al., 1997, Hum. Genet., 99:692-5). Specifically, the histograms of repeat length distributions were from at least two different cell clones. Length distributions were determined as follows: Small-pool PCR followed by Southern blot for analysis of CAG/CTG repeat length."}, "HT1080-(CAG)850 cells": {"system": "HT1080-(CAG)850 cells", "experiment": "small-pool PCR repeat instability, proliferating HT1080-(CAG)850 cells producing rCAG transcript", "type": "cell-based, human", "settings": "30 days; for % Contraction / % Expansion: cut-off ±25 repeats", "protocol": "as §1, §2"}, "[1]": {"settings": "single experiments Ex 1-3, cut-off ±10 repeats"}, "[2]": {"settings": "50 uM NA, Total of 3 experiments"}, "[3]": {"settings": "50 uM NA, single experiments Ex 1-3"}},
  "note": "Several values for one entry are separate records, joined by “and”; a condition that tells them apart may be missing. Equal entries are not always repeated.",
  "data": [
    {"substance": "naphthyridine-azaquinolone", "values": [
      {"measurement": "% Contraction", "setting": "HD fibroblasts (CAG)180; Total", "result": 31.2, "unit": "%"},
      {"measurement": "% Expansion", "setting": "HD fibroblasts (CAG)180; Total", "result": 13.6, "unit": "%"},
      {"measurement": "% Unchanged", "setting": "HD fibroblasts (CAG)180; Total", "result": 55.2, "unit": "%"},
      {"measurement": "Average repeat size", "setting": "HD fibroblasts (CAG)180; Total", "result": "177.5 number of repeats"},
      {"measurement": "% Unchanged", "setting": "HD fibroblasts (CAG)180; single experiments Ex 1-3", "result": "58.6% and 56.1% and 50.9%"},
      {"measurement": "Average repeat size", "setting": "HD fibroblasts (CAG)180; single experiments Ex 1-3", "result": "178.5 number of repeats and 176.5 number of repeats and 177.5 number of repeats"},
      {"measurement": "% Contraction", "setting": "HD fibroblasts (CAG)180; [1]", "result": "28.8% and 30.8% and 34.0%"},
      {"measurement": "% Expansion", "setting": "HD fibroblasts (CAG)180; [1]", "result": "12.6% and 13.1% and 15.1%"},
      {"measurement": "magnitude of repeat units lost (greatest)", "setting": "HT1080-(CAG)850 cells; 50 μM NA", "result": "≤ 790", "unit": "repeats"},
      {"measurement": "% Unchanged", "setting": "HT1080-(CAG)850 cells; [2]", "result": 26.7, "unit": "%"},
      {"measurement": "Average Change of Repeat Size", "setting": "HT1080-(CAG)850 cells; 50 uM NA, Total of 3 experiments, all alleles", "result": "−125.7 number of repeats"},
      {"measurement": "% Contraction", "setting": "HT1080-(CAG)850 cells; [2]", "result": 59.4, "unit": "%"},
      {"measurement": "% Expansion", "setting": "HT1080-(CAG)850 cells; [2]", "result": 13.9, "unit": "%"},
      {"measurement": "% Unchanged", "setting": "HT1080-(CAG)850 cells; [3]", "result": "28.4% and 27.4% and 23.7%"},
      {"measurement": "% Contraction", "setting": "HT1080-(CAG)850 cells; [3]", "result": "56.8% and 60.0% and 61.0%"},
      {"measurement": "% Expansion", "setting": "HT1080-(CAG)850 cells; [3]", "result": "14.8% and 11.3% and 15.2%"}
    ]}
  ]
}
